Assay results from patent US20140205537A1, “LRRK2 INHIBITORS” (ZENOBIA THERAPEUTICS, INC., priority 2011, published 2014).

Legend:
Format in all cases: biochemical
ABL1 = ABL1 (Homo sapiens, UniProt P00519); assay: Kinase selectivity panel: ABL1
AMPK A1/B1/G1 = AMPK A1/B1/G1 (Homo sapiens, UniProt Q13131); assay: Kinase selectivity panel: AMPK A1/B1/G1
AURKA = target: T1, AURKA (Homo sapiens, UniProt O14965); assay: Kinase selectivity panel: AURKA
T1 sequence (O14965 1-403): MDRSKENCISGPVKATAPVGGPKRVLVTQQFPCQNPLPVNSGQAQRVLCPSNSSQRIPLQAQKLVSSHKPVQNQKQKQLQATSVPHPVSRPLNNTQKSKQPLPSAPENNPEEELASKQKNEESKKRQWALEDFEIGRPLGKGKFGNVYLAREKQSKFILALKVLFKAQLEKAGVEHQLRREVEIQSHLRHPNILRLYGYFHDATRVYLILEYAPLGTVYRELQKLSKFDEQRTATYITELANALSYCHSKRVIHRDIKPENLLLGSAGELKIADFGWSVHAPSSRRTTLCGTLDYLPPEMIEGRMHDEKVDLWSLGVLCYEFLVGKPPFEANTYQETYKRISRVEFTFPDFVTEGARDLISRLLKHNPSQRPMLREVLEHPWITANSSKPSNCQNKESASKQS

CDK5/p35 = CDK5/p35 (Homo sapiens, UniProt Q00535); assay: Kinase selectivity panel: CDK5/p35
Chain of CDK5/p35 (Q00535 whole entry, species assumed): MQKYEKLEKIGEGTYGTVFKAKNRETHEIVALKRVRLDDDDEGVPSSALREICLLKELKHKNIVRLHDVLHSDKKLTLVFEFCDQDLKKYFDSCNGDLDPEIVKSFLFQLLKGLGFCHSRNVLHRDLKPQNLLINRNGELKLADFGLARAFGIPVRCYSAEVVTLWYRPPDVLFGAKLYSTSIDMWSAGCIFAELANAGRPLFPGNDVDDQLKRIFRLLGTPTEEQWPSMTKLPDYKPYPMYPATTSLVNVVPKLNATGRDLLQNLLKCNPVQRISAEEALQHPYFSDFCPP
Chain of CDK5/p35 (Q15078 whole entry partner, species assumed): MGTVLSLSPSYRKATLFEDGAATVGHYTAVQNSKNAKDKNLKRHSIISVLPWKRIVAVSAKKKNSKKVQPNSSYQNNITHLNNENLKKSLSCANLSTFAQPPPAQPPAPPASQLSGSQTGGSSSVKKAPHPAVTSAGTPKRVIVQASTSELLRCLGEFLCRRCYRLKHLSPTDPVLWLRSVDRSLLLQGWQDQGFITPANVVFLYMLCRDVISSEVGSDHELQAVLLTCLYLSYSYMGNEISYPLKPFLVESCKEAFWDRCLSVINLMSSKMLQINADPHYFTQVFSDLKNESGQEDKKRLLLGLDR

CK1 gamma2 = CK1 gamma2 (Homo sapiens, UniProt P78368); assay: Kinase selectivity panel: CK1 gamma2
DCK2 = DCK2 (Homo sapiens, UniProt Q8N568); assay: Kinase selectivity panel: DCK2
DYRK3 = DYRK3 (Homo sapiens, UniProt O43781); assay: Kinase selectivity panel: DYRK3
EGFR = EGFR (Homo sapiens, UniProt P00533); assay: Kinase selectivity panel: EGFR
HER2 = HER2 (Homo sapiens, UniProt P04626); assay: Kinase selectivity panel: HER2
IRAK4 = target: T2, IRAK4 (Homo sapiens, UniProt Q9NWZ3); assay: Kinase selectivity panel: IRAK4
T2 sequence (Q9NWZ3 1-460): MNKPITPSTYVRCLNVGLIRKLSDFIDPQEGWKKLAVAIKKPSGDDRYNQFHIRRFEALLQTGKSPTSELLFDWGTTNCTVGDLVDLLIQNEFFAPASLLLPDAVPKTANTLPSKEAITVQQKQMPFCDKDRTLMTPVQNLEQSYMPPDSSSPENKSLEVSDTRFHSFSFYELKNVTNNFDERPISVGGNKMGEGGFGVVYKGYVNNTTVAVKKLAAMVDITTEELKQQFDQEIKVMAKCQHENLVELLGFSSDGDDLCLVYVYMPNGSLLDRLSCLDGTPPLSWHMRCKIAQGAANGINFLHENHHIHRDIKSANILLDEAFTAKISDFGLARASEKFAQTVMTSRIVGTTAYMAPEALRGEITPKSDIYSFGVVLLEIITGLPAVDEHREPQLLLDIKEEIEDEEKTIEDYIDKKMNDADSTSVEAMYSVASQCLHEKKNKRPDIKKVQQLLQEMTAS

IGF1R = IGF1R (Homo sapiens, UniProt P08069); assay: Kinase selectivity panel: IGF1R
Chain of IGF1R (P08069 31-1367, species assumed): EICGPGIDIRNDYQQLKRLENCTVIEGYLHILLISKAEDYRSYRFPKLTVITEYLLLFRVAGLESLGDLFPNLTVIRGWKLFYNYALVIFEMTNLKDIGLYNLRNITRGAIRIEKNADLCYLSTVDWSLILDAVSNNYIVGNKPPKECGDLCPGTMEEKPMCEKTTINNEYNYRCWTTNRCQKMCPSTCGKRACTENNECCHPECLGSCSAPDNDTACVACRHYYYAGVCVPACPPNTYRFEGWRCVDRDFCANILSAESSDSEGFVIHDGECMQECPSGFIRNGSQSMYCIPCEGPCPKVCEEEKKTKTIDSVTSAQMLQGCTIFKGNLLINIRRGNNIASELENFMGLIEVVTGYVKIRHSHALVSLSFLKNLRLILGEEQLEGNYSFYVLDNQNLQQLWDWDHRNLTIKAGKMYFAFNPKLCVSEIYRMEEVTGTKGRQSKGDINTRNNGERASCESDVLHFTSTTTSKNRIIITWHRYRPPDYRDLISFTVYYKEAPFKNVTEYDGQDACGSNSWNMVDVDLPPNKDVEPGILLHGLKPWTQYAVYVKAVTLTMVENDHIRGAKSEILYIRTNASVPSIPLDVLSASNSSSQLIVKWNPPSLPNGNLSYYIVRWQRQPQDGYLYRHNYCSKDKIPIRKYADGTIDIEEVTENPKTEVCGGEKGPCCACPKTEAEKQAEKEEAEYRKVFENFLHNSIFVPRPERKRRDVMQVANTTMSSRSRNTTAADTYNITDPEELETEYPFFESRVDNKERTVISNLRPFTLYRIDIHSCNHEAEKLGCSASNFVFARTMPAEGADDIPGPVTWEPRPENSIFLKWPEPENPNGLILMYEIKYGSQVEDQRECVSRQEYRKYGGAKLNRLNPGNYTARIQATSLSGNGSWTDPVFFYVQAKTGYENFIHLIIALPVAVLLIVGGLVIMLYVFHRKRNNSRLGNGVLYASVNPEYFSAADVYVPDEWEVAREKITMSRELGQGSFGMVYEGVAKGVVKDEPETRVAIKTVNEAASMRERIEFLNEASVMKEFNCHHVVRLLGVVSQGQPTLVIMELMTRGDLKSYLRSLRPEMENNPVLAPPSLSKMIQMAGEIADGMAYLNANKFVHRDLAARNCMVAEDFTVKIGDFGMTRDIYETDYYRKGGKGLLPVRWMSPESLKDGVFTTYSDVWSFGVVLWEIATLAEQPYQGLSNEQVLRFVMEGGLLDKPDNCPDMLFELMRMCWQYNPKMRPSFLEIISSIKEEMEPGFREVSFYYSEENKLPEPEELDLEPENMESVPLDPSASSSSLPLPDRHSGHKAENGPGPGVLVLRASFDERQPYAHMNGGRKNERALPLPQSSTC

IKKbeta = IKKbeta (Homo sapiens, UniProt O14920); assay: Kinase selectivity panel: IKKbeta
INSR = INSR (Homo sapiens, UniProt P06213); assay: Kinase selectivity panel: INSR
LCK = LCK (Homo sapiens, UniProt P06239); assay: Kinase selectivity panel: LCK
MARK2 = MARK2 (Homo sapiens, UniProt Q7KZI7); assay: Kinase selectivity panel: MARK2
Chain of MARK2 (Q7KZI7 whole entry, species assumed): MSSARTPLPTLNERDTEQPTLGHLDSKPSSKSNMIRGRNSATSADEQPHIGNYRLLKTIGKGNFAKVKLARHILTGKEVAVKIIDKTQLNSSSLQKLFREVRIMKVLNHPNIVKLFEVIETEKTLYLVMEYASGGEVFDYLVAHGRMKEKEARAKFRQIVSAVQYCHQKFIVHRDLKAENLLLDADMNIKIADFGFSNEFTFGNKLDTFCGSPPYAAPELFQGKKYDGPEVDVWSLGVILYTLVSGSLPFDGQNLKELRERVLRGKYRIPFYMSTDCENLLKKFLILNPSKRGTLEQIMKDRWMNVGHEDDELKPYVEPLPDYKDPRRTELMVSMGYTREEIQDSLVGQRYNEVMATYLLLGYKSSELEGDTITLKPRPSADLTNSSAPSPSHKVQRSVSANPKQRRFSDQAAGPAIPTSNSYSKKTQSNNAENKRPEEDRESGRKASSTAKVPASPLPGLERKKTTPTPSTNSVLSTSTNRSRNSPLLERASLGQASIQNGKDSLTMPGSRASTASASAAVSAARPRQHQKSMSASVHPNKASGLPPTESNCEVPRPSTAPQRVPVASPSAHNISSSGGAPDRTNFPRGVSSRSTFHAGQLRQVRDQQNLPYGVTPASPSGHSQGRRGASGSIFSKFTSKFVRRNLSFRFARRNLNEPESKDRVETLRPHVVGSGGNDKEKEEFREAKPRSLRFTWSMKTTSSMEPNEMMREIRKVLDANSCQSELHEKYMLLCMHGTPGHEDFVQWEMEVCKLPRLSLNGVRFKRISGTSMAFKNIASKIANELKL

MLK1 = MLK1 (Homo sapiens, UniProt P80192); assay: Kinase selectivity panel: MLK1
HGK = HGK (Homo sapiens, UniProt O95819); assay: Kinase selectivity panel: HGK
ERK2 = ERK2 (Homo sapiens, UniProt P28482); assay: Kinase selectivity panel: ERK2
P38 alpha = P38 alpha (Homo sapiens, UniProt Q16539); assay: Kinase selectivity panel: P38 alpha
TRKA = TRKA (Homo sapiens, UniProt P04629); assay: Kinase selectivity panel: TRKA
PDGFRbeta = PDGFRbeta (Homo sapiens, UniProt P09619); assay: Kinase selectivity panel: PDGFRbeta
PKC beta1 = PKC beta1 (Homo sapiens, UniProt P05771); assay: Kinase selectivity panel: PKC beta1
Chain of PKC beta1 (P05771 whole entry): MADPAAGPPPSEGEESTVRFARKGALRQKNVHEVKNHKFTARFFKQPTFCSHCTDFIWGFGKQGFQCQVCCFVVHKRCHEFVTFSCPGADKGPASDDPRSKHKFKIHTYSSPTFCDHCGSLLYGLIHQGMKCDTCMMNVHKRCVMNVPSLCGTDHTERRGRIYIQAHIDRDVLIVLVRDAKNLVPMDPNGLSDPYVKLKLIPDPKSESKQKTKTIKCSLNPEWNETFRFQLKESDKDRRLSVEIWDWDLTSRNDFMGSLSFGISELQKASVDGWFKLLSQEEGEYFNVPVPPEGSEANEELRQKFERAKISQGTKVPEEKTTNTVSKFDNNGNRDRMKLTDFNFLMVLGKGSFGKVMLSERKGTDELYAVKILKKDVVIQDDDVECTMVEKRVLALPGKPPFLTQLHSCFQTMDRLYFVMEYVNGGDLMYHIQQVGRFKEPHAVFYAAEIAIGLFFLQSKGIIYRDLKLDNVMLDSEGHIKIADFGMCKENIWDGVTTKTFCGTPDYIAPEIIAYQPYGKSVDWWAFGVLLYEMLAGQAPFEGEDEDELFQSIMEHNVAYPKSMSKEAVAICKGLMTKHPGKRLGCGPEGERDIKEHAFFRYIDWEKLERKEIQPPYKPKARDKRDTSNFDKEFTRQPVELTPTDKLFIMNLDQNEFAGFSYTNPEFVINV

SRC = SRC (Homo sapiens, UniProt P12931); assay: Kinase selectivity panel: SRC
Chain of SRC (P12931 whole entry, species assumed): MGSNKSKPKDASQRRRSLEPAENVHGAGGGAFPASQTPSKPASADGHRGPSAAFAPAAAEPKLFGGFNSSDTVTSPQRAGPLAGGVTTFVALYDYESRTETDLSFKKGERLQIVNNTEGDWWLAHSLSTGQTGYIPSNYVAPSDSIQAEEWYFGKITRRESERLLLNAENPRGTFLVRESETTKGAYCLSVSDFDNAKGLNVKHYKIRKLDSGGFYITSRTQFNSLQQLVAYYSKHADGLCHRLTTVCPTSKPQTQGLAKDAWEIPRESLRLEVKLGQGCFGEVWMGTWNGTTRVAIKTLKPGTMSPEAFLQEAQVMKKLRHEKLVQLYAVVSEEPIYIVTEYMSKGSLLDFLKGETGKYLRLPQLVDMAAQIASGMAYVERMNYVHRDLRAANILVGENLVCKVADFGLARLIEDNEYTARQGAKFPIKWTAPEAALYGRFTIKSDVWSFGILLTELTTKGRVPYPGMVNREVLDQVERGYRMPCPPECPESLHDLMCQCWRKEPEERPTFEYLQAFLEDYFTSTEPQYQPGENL

SYK = SYK (Homo sapiens, UniProt P43405); assay: Kinase selectivity panel: SYK

Chain of ABL1 (P00519 whole entry, species assumed): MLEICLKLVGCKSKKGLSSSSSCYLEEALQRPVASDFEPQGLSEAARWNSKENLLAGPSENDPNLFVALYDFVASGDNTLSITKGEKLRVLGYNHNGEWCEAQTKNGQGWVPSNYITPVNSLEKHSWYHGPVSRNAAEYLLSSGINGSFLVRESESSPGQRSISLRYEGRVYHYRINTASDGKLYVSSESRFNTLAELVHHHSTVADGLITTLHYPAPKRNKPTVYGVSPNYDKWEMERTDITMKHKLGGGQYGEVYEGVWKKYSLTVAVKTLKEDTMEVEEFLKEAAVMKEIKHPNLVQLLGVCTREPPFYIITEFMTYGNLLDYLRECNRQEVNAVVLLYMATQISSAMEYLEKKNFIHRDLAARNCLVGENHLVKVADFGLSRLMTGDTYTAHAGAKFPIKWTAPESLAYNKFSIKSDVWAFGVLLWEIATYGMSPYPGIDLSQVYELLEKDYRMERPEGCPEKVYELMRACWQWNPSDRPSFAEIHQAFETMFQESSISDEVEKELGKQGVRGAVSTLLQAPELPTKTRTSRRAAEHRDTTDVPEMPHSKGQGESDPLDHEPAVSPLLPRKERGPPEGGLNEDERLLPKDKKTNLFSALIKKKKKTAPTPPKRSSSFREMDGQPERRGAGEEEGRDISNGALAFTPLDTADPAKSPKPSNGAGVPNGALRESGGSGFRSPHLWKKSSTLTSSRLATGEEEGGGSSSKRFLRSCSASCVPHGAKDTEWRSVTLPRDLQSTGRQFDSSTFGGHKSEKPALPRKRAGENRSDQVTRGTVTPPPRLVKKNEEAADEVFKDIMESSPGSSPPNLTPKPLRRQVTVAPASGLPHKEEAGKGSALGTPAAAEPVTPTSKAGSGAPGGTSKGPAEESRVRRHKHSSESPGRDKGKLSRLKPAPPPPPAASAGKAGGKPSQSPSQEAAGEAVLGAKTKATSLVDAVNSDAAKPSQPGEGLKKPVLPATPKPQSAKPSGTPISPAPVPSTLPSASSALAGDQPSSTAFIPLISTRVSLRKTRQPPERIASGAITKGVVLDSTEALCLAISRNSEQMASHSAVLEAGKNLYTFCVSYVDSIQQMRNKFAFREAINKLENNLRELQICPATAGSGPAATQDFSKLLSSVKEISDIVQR

`COc1ccc2c(c1)/C(=C/c1cnc(C3CCOCC3)[nH]1)C(=O)N2` [Compound 18, (3Z)-5-methoxy-3-[(2-tetrahydropyran-4-yl-1H-imidazol-5-yl)methylene]indolin-2-one] showed an IC50 (ABL1) of over 10 µM, an inhibition at 0.1 µM (ABL1; @0.1 uM) of 5% and an inhibition at 0.1 µM (AMPK A1/B1/G1) of -1%. It also gave an IC50 (AURKA) of over 10 µM, an inhibition at 0.1 µM (AURKA; @0.1 uM) of -1% and an IC50 (CDK5/p35) of over 10 µM. It also gave an inhibition at 0.1 µM (CDK5/p35; @0.1 uM) of 1%, an inhibition at 0.1 µM (CK1 gamma2) of 6% and an inhibition at 0.1 µM (DCK2) of 8%. The inhibition at 0.1 µM (DYRK3) was 2%, the inhibition at 0.1 µM (EGFR) was -3% and the inhibition at 0.1 µM (HER2) was 4%. It also gave an IC50 (IRAK4) of over 10 µM, an inhibition at 0.1 µM (IRAK4; @0.1 uM) of -1% and an inhibition at 0.1 µM (IGF1R) of 7%. The inhibition at 0.1 µM (IKKbeta) was 7%, the inhibition at 0.1 µM (INSR) was 4% and the inhibition at 0.1 µM (LCK) was 3%. The IC50 (MARK2) was 7.94 µM, the inhibition at 0.1 µM (MARK2; @0.1 uM) was 5% and the inhibition at 0.1 µM (MLK1) was -17%. The inhibition at 0.1 µM (HGK) was -18%, the inhibition at 0.1 µM (ERK2) was 8% and the inhibition at 0.1 µM (P38 alpha) was 12%. The inhibition at 0.1 µM (TRKA) was 11%, the inhibition at 0.1 µM (PDGFRbeta) was 4% and the inhibition at 0.1 µM (PKC beta1) was 4%. It also gave an inhibition at 0.1 µM (SRC) of 13% and an inhibition at 0.1 µM (SYK) of 8%.
